Drawing on patent US20120202690A1, “HERBICIDAL COMPOUNDS” (SYNGENTA LIMITED, priority 2009, published 2012), this text covers pest or weed control for eight molecules.

Type in all cases: in vivo
Assay [1] has as its system Alopecurus myosuroides (ALOMY). The assay is described as follows: Pre-emergence biological efficacy, glasshouse, 1000 g/ha, evaluated after 13 days (100=total damage to plant; 0=no damage to plant). The settings on record: Alopecurus myosuroides, 312 h, read-out: Percentage damage caused to weed species, pre-emergence, ALOMY; for pest or weed control at 1000 g/ha: rate 1,000 g/ha. A digest of the protocol: (§1)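 Standard soil in pots received the seeds. Growth took place in a glasshouse held at 24/16° C. day/night, 65% humidity and 14 h of light.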

Assay [2] relates to Amaranthus retroflexus (AMARE). The assay is described as above. The following applies: Amaranthus retroflexus, 312 h, read-out: Percentage damage caused to weed species, pre-emergence, AMARE; for pest or weed control at 1000 g/ha: rate 1,000 g/ha. The procedure, abridged: as §1
The subject of assay [3] is Echinochloa crus-galli (ECHCG). Described as above. The following applies: Echinochloa crus-galli, 312 h, read-out: Percentage damage caused to weed species, pre-emergence, ECHCG; for pest or weed control at 1000 g/ha: rate 1,000 g/ha. The procedure, abridged:
as §1

The subject of assay [4] is Ipomoea hederaceae (IPOHE). Described as above. The following applies: Ipomoea, 312 h, read-out: Percentage damage caused to weed species, pre-emergence, IPOHE; for pest or weed control at 1000 g/ha: rate 1,000 g/ha. The procedure, abridged:
as §1

Assay [5] deals with Setaria faberi (SETFA). Described as above. The following applies: Setaria faberi, 312 h, read-out: Percentage damage caused to weed species, pre-emergence, SETFA; for pest or weed control at 1000 g/ha: rate 1,000 g/ha. A digest of the protocol: as §1
The subject of assay [6] is Solanum nigrum (SOLNI). Described as above. The settings on record: Solanum nigrum, 312 h, read-out: Percentage damage caused to weed species, pre-emergence, SOLNI; for pest or weed control at 1000 g/ha: rate 1,000 g/ha. The procedure, abridged: as §1
The subject of assay [7] is Alopecurus myosuroides (ALOMY). The assay is described as follows: Post-emergence biological efficacy, glasshouse, 500 or 1000 g/ha, evaluated after 13 days (100=total damage to plant; 0=no damage to plant). The settings on record: Alopecurus myosuroides, 312 h, read-out: Percentage damage caused to weed species, post-emergence, ALOMY; for pest or weed control at 1000 g/ha: rate 1,000 g/ha. The procedure, abridged: (§2)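 Plants raised from seed in pots of standard soil receive the spray after emergence. They then grow on under controlled glasshouse conditions (24/16° C. day/night, 14 hours light, 65% humidity) and are watered twice a day.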

Assay [8] relates to Amaranthus retroflexus (AMARE). Described as above. The following applies: Amaranthus retroflexus, 312 h, read-out: Percentage damage caused to weed species, post-emergence, AMARE; for pest or weed control at 1000 g/ha: rate 1,000 g/ha. The procedure, abridged:
as §2

Assay [9] relates to Echinochloa crusgaffi (ECHCG). The assay is described as above. The following applies: Echinochloa, 312 h, read-out: Percentage damage caused to weed species, post-emergence, ECHCG; for pest or weed control at 1000 g/ha: rate 1,000 g/ha. The procedure, abridged:
as §2

For assay [10], the system named is Ipomoea hederaceae (IPOHE). The assay is described as above. The settings on record: Ipomoea, 312 h, read-out: Percentage damage caused to weed species, post-emergence, IPOHE; for pest or weed control at 1000 g/ha: rate 1,000 g/ha. A digest of the protocol:
as §2

Assay [11] relates to Setaria faberi (SETFA). The description is as above. The following applies: Setaria faberi, 312 h, read-out: Percentage damage caused to weed species, post-emergence, SETFA; for pest or weed control at 1000 g/ha: rate 1,000 g/ha. The procedure, abridged: as §2
In assay [12] the test system is Solanum nigrum (SOLNI). The description is as above. The settings on record: Solanum nigrum, 312 h, read-out: Percentage damage caused to weed species, post-emergence, SOLNI; for pest or weed control at 1000 g/ha: rate 1,000 g/ha. The procedure, abridged:
as §2

As to `C=C1c2c(nc(-c3ccc(Cl)c(OC)c3F)nc2C(=O)OC)NCC1(C)C` [Compound 71-180, 2-(4-Chloro-2-fluoro-3-methoxyphenyl)-6,6-dimethyl-4-methoxycarbonyl-5-methylene-5,6,7,8-tetrahydro-pyrido[2,3-d]pyrimidine], the pest or weed control at 500 g/ha (in [1] (rate 500 g/ha); in assay [2] (rate 500 g/ha); in assay [3] (rate 500 g/ha); in assay [4] (rate 500 g/ha); in the assay with Setaria faberi (SETFA) [5] (rate 500 g/ha); with Solanum nigrum (SOLNI) [6] (rate 500 g/ha)) was 0% each time. Besides, the pest or weed control at 500 g/ha was 0% in assay [7] (rate 500 g/ha); 0% in [8] (rate 500 g/ha); 0% in assay [9] (rate 500 g/ha); 40% in assay [10] (rate 500 g/ha); 0% in the assay with Setaria faberi (SETFA) [11] (rate 500 g/ha); 20% in the assay on Solanum nigrum (SOLNI) [12] (rate 500 g/ha).

Regarding `COC(=O)c1nc(-c2ccc(Cl)c(OC)c2F)nc2c1N(Cc1ccccc1)C(C)N2Cc1ccccc1` (stereo not drawn) [Compound 81-46, 2-(4-chloro-2-fluoro-3-methoxyphenyl)-7,9-dibenzyl-6-methoxycarbonyl-8-methyl-8,9-dihydro-7H-purine], the pest or weed control at 1000 g/ha (in [1]; in assay [2]; in [3]; in [4]; in the assay with Setaria faberi (SETFA) [5]; with Solanum nigrum (SOLNI) [6]) was 0% throughout. The pest or weed control at 1000 g/ha in [7] was 0%; in [8], 0%; in assay [9], 0%; in [10], 0%; in the assay on Setaria faberi (SETFA) [11], 10%; in the assay on Solanum nigrum (SOLNI) [12], 10%.

On to `COC(=O)c1nc(-c2ccc(Cl)c(OC)c2F)nc2c1N(Cc1ccc(OC)cc1OC)C(C)N2Cc1ccc(OC)cc1OC` (stereo not drawn) [Compound 83-48, 2-(4-Chloro-2-fluoro-3-methoxyphenyl)-7,9-bis(2,4-dimethoxyphenyl-methyl)-6-methoxycarbonyl-8-methyl-8,9-dihydro-7H-purine], for which the pest or weed control at 1000 g/ha (in assay [1]; in assay [2]; in [3]; in [4]; with Setaria faberi (SETFA) [5]; in the assay with Solanum nigrum (SOLNI) [6]) was 0% each time. The pest or weed control at 1000 g/ha turned out to be 20% in [7]; 0% in assay [8]; 20% in assay [9]; 10% in assay [10]; 20% with Setaria faberi (SETFA) [11]; 20% in the assay with Solanum nigrum (SOLNI) [12].

`COC(=O)c1nc(C2CC2)nc2c1NC(c1ccccc1)C(c1ccccc1)N2` (stereo not drawn) [Compound 91-44, 2-cyclopropyl-6,7-diphenyl-4-methoxycarbonyl-5,6,7,8-tetrahydropteridine]: the pest or weed control at 1000 g/ha in assay [1] worked out at 30%; in [2], 70%; in assay [3] it was 10%; in assay [4], 20%; in the assay on Setaria faberi (SETFA) [5], 0%; with Solanum nigrum (SOLNI) [6] it was 30%. For the same molecule, the pest or weed control at 1000 g/ha in [7] was 20%; in assay [8] it was 70%; in assay [9], 50%; in assay [10] it was 60%; in the assay with Setaria faberi (SETFA) [11] it was 50%; in the assay on Solanum nigrum (SOLNI) [12], 90%.

For the molecule `COC(=O)c1nc(-c2ccc(Cl)c(OC)c2F)nc2c1NC(C)C(C)N2` (stereo not drawn) [Compound 91-184, 2-(4-Chloro-2-fluoro-3-methoxyphenyl)-6,7-dimethyl-4-methoxy-carbonyl-5,6,7,8-tetrahydropteridine], the pest or weed control at 1000 g/ha (in assay [1]; in assay [2]; in assay [3]; in assay [4]; with Setaria faberi (SETFA) [5]; with Solanum nigrum (SOLNI) [6]) was 0% in each case. Besides, the pest or weed control at 1000 g/ha in [7] was 0%; in assay [8], 20%; in assay [9], 30%; in [10], 70%; in the assay with Setaria faberi (SETFA) [11], 0%; in the assay with Solanum nigrum (SOLNI) [12], 50%.

Take `COc1c(Cl)ccc(-c2nc3c(c(C(=O)O)n2)NC(c2ccccc2)C(c2ccccc2)N3)c1F` (stereo not drawn) [Compound 91-203, 4-Carboxy-2-(4-chloro-2-fluoro-3-methoxyphenyl)-6,7-diphenyl-5,6,7,8-tetrahydropteridine]: the pest or weed control at 1000 g/ha in assay [1] was determined as 0%; in assay [2] it was 0%; in [3], 0%; in assay [4], 10%; with Setaria faberi (SETFA) [5] it was 0%; in the assay on Solanum nigrum (SOLNI) [6] it was 20%. Moreover, the pest or weed control at 1000 g/ha came to 0% in [7]; 10% in assay [8]; 0% in assay [9]; 10% in assay [10]; 10% with Setaria faberi (SETFA) [11]; 40% in the assay with Solanum nigrum (SOLNI) [12].

As for `COC(=O)c1nc(-c2ccc(Cl)c(OC)c2F)nc2c1NC(c1ccccc1)C(c1ccccc1)N2` (stereo not drawn) [Compound 91-204, 2-(4-Chloro-2-fluoro-3-methoxyphenyl)-6,7-diphenyl-4-methoxycarbonyl-5,6,7,8-tetrahydropteridine], the pest or weed control at 1000 g/ha in assay [1] was 0%; in [2] it was 20%; in assay [3], 0%; in assay [4], 0%; in the assay with Setaria faberi (SETFA) [5] it was 0%; in the assay with Solanum nigrum (SOLNI) [6], 10%. For the same molecule, the pest or weed control at 1000 g/ha was determined as 0% in assay [7]; 50% in [8]; 0% in [9]; 40% in assay [10]; 0% with Setaria faberi (SETFA) [11]; 80% with Solanum nigrum (SOLNI) [12].

On to `COc1c(Cl)ccc(-c2nc3c(c(C(=O)O)n2)N[C@@H]2CCCC[C@H]2N3)c1F` [Compound 91-207, (5aR,9aR)-4-Carboxy-2-(4-chloro-2-fluoro-3-methoxyphenyl)-5,5a,6,7,8,9,9a,10-octahydro-benzo[g]pteridine], for which the pest or weed control at 1000 g/ha came out at 0% in assay [1]; 20% in assay [2]; 0% in assay [3]; 0% in assay [4]; 10% in the assay on Setaria faberi (SETFA) [5]; 10% in the assay with Solanum nigrum (SOLNI) [6]. The pest or weed control at 1000 g/ha worked out at 0% in [7]; 20% in [8]; 0% in assay [9]; 60% in [10]; 0% in the assay with Setaria faberi (SETFA) [11]; 70% in the assay with Solanum nigrum (SOLNI) [12].
